According to PubChem BioAssay (NCI):
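These data come from cells grown in 96-well plates and exposed to compound for 48 hours at five concentrations. TGI: concentration producing complete growth inhibition.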

Columns and labels:
Test in all cases: NCI anticancer screen, dose series, 48 h
MDA-N = tested on: MDA-N
NCI-H522 lung = tested on: NCI-H522 lung
NCI-H23 lung = tested on: NCI-H23 lung
COLO 205 colon = tested on: COLO 205 colon
NCI-H460 lung = tested on: NCI-H460 lung
SW-620 colon = tested on: SW-620 colon
OVCAR-5 ovarian = tested on: OVCAR-5 ovarian
K-562 leukemia = tested on: K-562 leukemia
RPMI-8226 leukemia = tested on: RPMI-8226 leukemia
HS 578T breast = tested on: HS 578T breast

Row | Structure (SMILES) | TGI (MDA-N) [µM] | TGI (NCI-H522 lung) [µM] | TGI (NCI-H23 lung) [µM] | TGI (COLO 205 colon) [µM] | TGI (NCI-H460 lung) [µM] | TGI (SW-620 colon) [µM] | TGI (OVCAR-5 ovarian) [µM] | TGI (K-562 leukemia) [µM] | TGI (RPMI-8226 leukemia) [µM] | TGI (HS 578T breast) [µM]
1 | COc1ccccc1Nc1nc(N)nc(N)c1N | 32.9 | 67 | > 100 | > 100 | > 100 | 72 | > 100 | > 100 | 82.7 | > 100
2 | COc1ccc(CCN2C(=O)C(=O)C(C(=O)c3ccccc3)C2c2ccccc2)cc1OC (stereo not given) | > 100 | > 100 | > 100 | > 100 | > 100 | > 100 | > 100 | > 100 | > 100 | > 100
3 | O=c1cc(O)c1=O | > 100 | > 100 | > 100 | > 100 | > 100 | > 100 | > 100 | > 100 | > 100 | > 100
4 | COc1ccc(CC(COS(=O)(=O)c2ccc(C)cc2)NS(=O)(=O)c2ccc(C)cc2)cc1 (stereo not given) | > 62.6 | 22.9 | 40.8 | 34.3 | 55.2 | 27 | 39.9 | > 100 | > 100 | 58.8
5 | COc1cc(Nc2nc(NS(=O)(=O)c3cc(C)c(Cl)cc3S)n[nH]2)cc(OC)c1OC | > 100 | > 100 | > 100 | > 100 | > 100 | > 100 | > 100 | > 100 | > 100 | > 100
6 | COC(=O)c1nc2n(n1)-c1ccccc1C(=O)N(Cc1ccccc1)C2 | > 100 | > 100 | > 100 | > 100 | > 100 | > 100 | > 100 | > 100 | > 100 | > 100
7 | CC(C)=CCN1c2ccccc2[C@@]2(CC=C(C)C)CCN(C)[C@@H]12 | > 100 | 39.9 | > 100 | 26.8 | 30.4 | > 100 | > 100 | 48.2 | 51 | 45.8
8 | CCOC(=O)n1c(=O)nc2c3c(ncn21)Oc1c(c(-c2ccccc2)nn1-c1ccccc1)C3c1ccc(Cl)cc1 (stereo not given) | 3.01 | 3.11 | 3.17 | 2.59 | 3.21 | 3.09 | 3.53 | 2.41 | 3.3 | 3.37
